The experiment addresses T1, Adenosine receptor A3 (Homo sapiens, UniProt P0DMS8).
T1 sequence (P0DMS8 whole entry): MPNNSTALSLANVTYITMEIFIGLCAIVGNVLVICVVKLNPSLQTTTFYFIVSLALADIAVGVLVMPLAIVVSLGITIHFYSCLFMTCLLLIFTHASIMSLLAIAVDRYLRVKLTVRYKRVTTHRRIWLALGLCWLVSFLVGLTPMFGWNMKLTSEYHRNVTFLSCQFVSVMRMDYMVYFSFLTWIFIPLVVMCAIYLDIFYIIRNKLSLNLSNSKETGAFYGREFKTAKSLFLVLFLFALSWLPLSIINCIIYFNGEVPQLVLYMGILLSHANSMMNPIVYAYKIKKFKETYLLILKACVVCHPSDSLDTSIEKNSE

“And” between values parts separate entries of the source, which are not always exact repeats. Identical values can stand only once.

By Ki is commonly meant the dissociation constant of the complex between target and ligand, obtained from inhibition or displacement. A higher Ki goes with lower affinity. `CCn1cc2c(nc(NC(=O)Nc3ccccc3)n3nc(-c4ccco4)nc23)n1` showed a Ki of 1.2 nM.
For the compound `CCCCn1cc2c(nc(NC(=O)Nc3ccccc3)n3nc(-c4ccco4)nc23)n1`, the Ki is 1.4 nM and 0.93 nM.
Take `Cn1cc2c(nc(NC(=O)Nc3ccccc3)n3nc(-c4ccco4)nc23)n1`: the Ki is 1.7 nM and 1.5 nM.
The figure for `Nc1nc2ccc(Cl)cc2c2nc(-c3ccco3)nn12` is 122 nM; for `CCCn1cc2c(nc(NC(=O)Nc3ccccc3)n3nc(-c4ccco4)nc23)n1` [MRE 3055F20] it is 1 nM and 0.53 nM.
The figure for `CCCCC#Cc1nc(N)c2ncn([C@@H]3O[C@H](C(=O)NCC)[C@H](O)C3O)c2n1` (stereo partly drawn) [(2S,3R,5R)-5-[6-amino-2-(hex-1-yn-1-yl)-9H-purin-9-yl]-N-ethyl-3,4-dihydroxyoxolane-2-carboxamide] is 750 nM and 740 nM; for `Nc1nc2c(cnn2CCc2ccccc2)c2nc(-c3ccco3)nn12` it is over 10000 nM.

Source of the values: BindingDB's records for doi:10.1124/mol.61.2.415 (University of Ferrara, 2002).
